{
  "source": "patent US20260049289A1",
  "about": "“ARRAY PLATFORM FOR HIGH-THROUGHPUT ORGANOID PROFILING” (CZ Biohub SF, LLC, priority 2022, published 2026)",
  "test_system": "patient-derived pancreatic ductal adenocarcinoma (PDAC) organoids",
  "experiment": "Drug testing of patient-derived PDAC organoids treated with gemcitabine in the microwell platform",
  "assay_type": "cell-based, human",
  "settings": "PDAC organoids derived from the same parental cells, imaging (FIG. 6)",
  "excerpt": "FIG. 6: Representative drug evaluation of patient-derived pancreatic ductal adenocarcinoma organoids treated with gemcitabine. Upper panel, organoids sensitive to gemcitabine; lower panel, organoids resistance to gemcitabine. Organoids are a desirable choice for drug screening studies because they retain 3D cellular architecture and therefore recapitulate physiological conditions to a higher degree than traditional cell lines. […] Organoids sensitive to gemcitabine (FIG. 6, top panel) were growth-stunted and/or dissociated compared to resistant organoids (FIG. 6, bottom panel). Whole organoids that display resistance to a drug, can be retrieved and further evaluated, e.g., for genomic changes and/or changes in RNA expression profiles, to evaluate mechanisms of drug resistance, for example, innate versus acquired resistance.",
  "data": [
    {"smiles": "Nc1ccn([C@@H]2O[C@H](CO)[C@@H](O)C2(F)F)c(=O)n1", "note": "[gemcitabine]", "values": [
      {"measurement": "observed drug response of single organoids (growth, dissociation)", "value": "heterogeneity in observed drug response"}
    ]}
  ]
}
